Experimental data taken from US7172867B2, “Methods of testing for allergic diseases, and therapeutic agents for treating same” (priority 2002, dated 2007).
“Also recorded” adds a separate entry of the source. Read-outs that look alike come from different tables or passages of the source.

B1: IL-4: cytokine used for eosinophil activation (protein, UniProt P05112 25-153, looked up)
Interleukin-4: HKCDITLQEIIKTLNSLTEQKTLCTELTVTDIFAASKNTTEKETFCRAATVLRQFYSHHEKDTRCLGATAQQFHRHKQLIRFLKRLDRNLWGLAGLNSCPVKEANQSTLENFLERLKTIMREKYSKCSS

Tests used:
[1] = biological target: T1, TR3 (Nur77) (Homo sapiens, UniProt P22736); assay: Mammalian two hybrid luciferase reporter system for TR3 ligand search (GAL4-TR3 LBD or full length, NIH3T3 cells, with or without RXRα); format: cell-based; conditions: for Nur77 LBD-ligand activity RXR(+): TR3 LBD fused to GAL4, RXRα added, NIH3T3 luciferase, ◯ with concentration, X
T1 construct: expressed in transfected cells; host or cells: NIH3T3
Description: (§1) A TR3 or TINUR ligand-binding site is inserted into X, and the full-length retinoic acid X receptor (RXR) α gene is inserted into Y. These constructs are transfected into NIH3T3 cells, and the activity of induced luciferase is measured.
This was done to facilitate expression of a protein in which the DNA binding domains of TR3 and GAL4 were fused in frame. A plasmid comprising the TR3 ligand binding domain sequence inserted into pBIND, and a luciferase reporter plasmid comprising a GAL4 binding site, were co-transfected into NIH3T3 cells. Luciferase activity was measured automatically. At this time, activity was also measured by adding a retinoic acid X receptor (RXR) α-gene, which is a transcription factor that forms a heterodimer with TR3. By further adding low molecular weight substances to this system, transcriptional enhancement activity can also be used for screening.
TR3 expression is enhanced in activated eosinophils, such as in the peripheral blood of atopic dermatitis patients. Ligands existing in vivo may exist in sites where nuclear receptors are highly expressed. Therefore, small molecule lipid-soluble mediators considered to be produced under such conditions were added to the assay system, and evaluated based on their ability to enhance luciferase activity. […] In this manner, the method established by the present inventors paved the way for the high throughput discovery of native and synthetic TR3 ligands.
(§2) Thus, it was implied that prostaglandin A2 functions by acting on the LBD region of the nuclear receptor.

[2] = biological target: T2, TINUR (Nurr1) (Homo sapiens, UniProt P43354); assay: Mammalian two hybrid luciferase reporter system for TINUR ligand search (GAL4-TINUR LBD or full length, NIH3T3 cells, with or without RXRα); format: cell-based; conditions: for Nurr1 LBD-ligand activity RXR(+): TINUR LBD fused to GAL4, RXRα added, NIH3T3 luciferase, ◯ with concentration, X
T2 construct: expressed in transfected cells; host or cells: NIH3T3
Description: as §1
Target sequence in this assay (P43354 360-598): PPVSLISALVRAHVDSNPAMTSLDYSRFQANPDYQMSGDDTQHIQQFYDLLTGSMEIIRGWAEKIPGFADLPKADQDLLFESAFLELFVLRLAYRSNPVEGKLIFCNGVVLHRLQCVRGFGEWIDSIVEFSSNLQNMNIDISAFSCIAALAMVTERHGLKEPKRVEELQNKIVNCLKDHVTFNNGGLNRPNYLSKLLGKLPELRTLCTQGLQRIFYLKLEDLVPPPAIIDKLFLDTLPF
A plasmid comprising the TINUR ligand binding domain sequence inserted into pBIND, and a luciferase reporter plasmid comprising a GAL4 binding site, were co-transfected into NIH3T3 cells. Luciferase activity was measured automatically. At the same time, activity measurement was also carried out by adding retinoic acid X receptor (RXR) α-gene, a transcription factor that forms a heterodimer with TINUR. Low molecular weight substances can also be added to this system to screen using transcriptional enhancement activity.
Like TR3 expression, TINUR expression is enhanced in activated eosinophils. Ligands existing in vivo may exist in sites where nuclear receptors are highly expressed. […] Ligands of the nuclear receptor subfamily are assumed to have structural redundancy. Therefore, derivatives similar to TR3 activator compounds were added, and enhancement of transcriptional activity was investigated.
as §2

[3] = biological target: T1, TR3 (Nur77); assay: Mammalian two hybrid luciferase reporter system for TR3 ligand search (GAL4-TR3 LBD or full length, NIH3T3 cells, with or without RXRα); format: cell-based; conditions: for Full length Nur77-ligand activity RXR(+): full length TR3 fused to GAL4, RXRα added; for Full length Nur77-ligand activity RXR(+) / Full length Nur77-ligand activity RXR(−): NIH3T3 luciferase, ◯ with concentration, X; for Full length Nur77-ligand activity RXR(−): full length TR3 fused to GAL4, without RXRα
[4] = biological target: T2, TINUR (Nurr1); assay: Mammalian two hybrid luciferase reporter system for TINUR ligand search (GAL4-TINUR LBD or full length, NIH3T3 cells, with or without RXRα); format: cell-based; conditions: NIH3T3 luciferase, ◯ with concentration, X; for Full length Nurr1-ligand activity RXR(+): full length TINUR fused to GAL4, RXRα added; for Full length Nurr1-ligand activity RXR(−): full length TINUR fused to GAL4, without RXRα
Target sequence in this assay (P43354 whole entry, the tested form may be a part): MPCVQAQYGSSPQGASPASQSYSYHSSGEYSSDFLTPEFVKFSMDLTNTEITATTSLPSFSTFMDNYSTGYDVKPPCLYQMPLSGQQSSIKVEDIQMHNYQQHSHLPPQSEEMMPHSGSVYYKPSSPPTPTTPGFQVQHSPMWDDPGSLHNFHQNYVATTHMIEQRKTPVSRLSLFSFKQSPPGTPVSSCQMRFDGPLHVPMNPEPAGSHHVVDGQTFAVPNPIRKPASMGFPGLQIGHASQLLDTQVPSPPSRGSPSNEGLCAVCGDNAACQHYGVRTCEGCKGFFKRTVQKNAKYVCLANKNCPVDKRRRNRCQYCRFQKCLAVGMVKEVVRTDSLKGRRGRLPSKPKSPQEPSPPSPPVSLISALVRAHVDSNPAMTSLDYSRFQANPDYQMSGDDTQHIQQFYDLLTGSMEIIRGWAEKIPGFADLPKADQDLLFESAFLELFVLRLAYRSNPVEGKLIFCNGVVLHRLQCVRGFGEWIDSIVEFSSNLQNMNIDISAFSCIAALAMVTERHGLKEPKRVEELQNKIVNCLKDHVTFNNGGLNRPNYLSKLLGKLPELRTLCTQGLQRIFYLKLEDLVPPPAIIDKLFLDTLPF

[5] = tested on: TR3 expression in peripheral blood eosinophils; assay: TR3 expression induction in cultured peripheral blood eosinophils; format: cell-based, human; conditions: cultured peripheral blood eosinophils from healthy subjects, one to three-hour treatment
[6] = biological target: T3, TR3 LBD (Homo sapiens, UniProt P22736); assay: Binding to TR3 GST-LBD by BIAcor S51; conditions: BIAcor S51, comparison with GST as a base
T3 construct: TR3 GST-LBD and TINUR GST-LBD were respectively expressed in E. coli, and then purified; made in house; host or cells: E. coli
T3 sequence (P22736 360-595 limits assumed): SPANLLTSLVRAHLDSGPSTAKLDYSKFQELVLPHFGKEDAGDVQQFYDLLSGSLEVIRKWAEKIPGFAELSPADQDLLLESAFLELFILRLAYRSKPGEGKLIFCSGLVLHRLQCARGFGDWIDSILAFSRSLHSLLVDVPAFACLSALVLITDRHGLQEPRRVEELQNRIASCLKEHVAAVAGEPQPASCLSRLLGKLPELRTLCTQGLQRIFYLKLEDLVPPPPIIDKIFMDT
From the text: In the present invention, a biosensor utilizing the phenomenon of surface plasmon resonance may also be used to detect or measure the bound compound. […] Therefore, biosensors such as BIACORE can be used to evaluate binding between the TR3 or TINUR protein and a test compound.

[7] = biological target: T4, TINUR LBD (Homo sapiens, UniProt P43354); assay: Binding to TINUR GST-LBD by BIAcor S51; conditions: BIAcor S51, comparison with GST as a base
T4 construct: TR3 GST-LBD and TINUR GST-LBD were respectively expressed in E. coli, and then purified; made in house; host or cells: E. coli
T4 sequence (P43354 360-595 limits assumed): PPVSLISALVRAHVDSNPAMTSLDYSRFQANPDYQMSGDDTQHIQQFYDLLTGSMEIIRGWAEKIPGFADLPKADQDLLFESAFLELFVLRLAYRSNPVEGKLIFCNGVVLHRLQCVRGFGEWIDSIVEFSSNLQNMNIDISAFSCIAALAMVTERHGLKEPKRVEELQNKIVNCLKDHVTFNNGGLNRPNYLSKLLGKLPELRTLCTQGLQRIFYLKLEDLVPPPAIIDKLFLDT

[8] = tested on: TINUR (Nurr1); assay: Mammalian two hybrid luciferase reporter system for TINUR ligand search (GAL4-TINUR LBD or full length, NIH3T3 cells, with or without RXRα); format: cell-based, human; conditions: LBD deletion mutant (ΔLBD)

Molecule | activity of enhancing the transcription-activating ability of TR3 (luciferase reporter), in words [1] | Nurr1 LBD-ligand activity RXR(+) [2] | activity of activating TINUR transcription (luciferase reporter), in words ([2]; listed as 15-deoxy-delta 12,14-prostaglandin J2) | Full length Nur77-ligand activity RXR(+) [3] | Full length Nur77-ligand activity RXR(−) [3] | activity of activating TINUR transcription (luciferase reporter), in words [2] | Full length Nurr1-ligand activity RXR(+) [4] | Full length Nurr1-ligand activity RXR(−) [4] | Nur77 LBD-ligand activity RXR(+) [1] | TR3 induction [5] | binding to the LBD of TR3 [6] | transcriptional activity with TR3 gene completely lacking an LBD region ([3]; LBD deletion mutant (ΔLBD)) | binding to the LBD of TINUR [7] | transcriptional activity with TINUR gene completely lacking an LBD region [8]
CCCCC/C=C/C=C1/C(=O)C=C[C@@H]1C/C=C\CCCC(=O)O [15-deoxy-Δ^12.14_Prostaglandin J2] | ligand activators for TR3 | ◯10 μM | ligand activators; also recorded: found to comprise the activity of activating TINUR transcription | ◯10 μM | ◯10 μM |  |  |  |  |  |  |  |  | 
O=C(O)CCC/C=C\C[C@H]1C(=O)C=C[C@@H]1/C=C/[C@@H](O)COc1ccccc1 [16-phenoxytetranorProstaglandin A2] | ligand activators for TR3 | ◯10 μM |  |  | ◯30 μM | ligand activators; also recorded: found to comprise the activity of activating TINUR transcription | ◯30 μM | ◯30 μM |  |  |  |  |  | 
CCCCC[C@@](C)(O)/C=C/[C@H]1C=CC(=O)[C@@H]1C/C=C\CCCC(=O)O [15(R)-15-methylProstaglandin A2] | ligand activators for TR3; also recorded: the activity of enhancing the transcription-activating ability of TR3 was found | ◯10 μM |  | ◯10 μM | ◯10 μM | ligand activators; also recorded: found to comprise the activity of activating TINUR transcription | ◯10 μM |  | ◯10 μM |  |  |  |  | 
IL-5: cytokine used for eosinophil activation |  |  |  |  |  |  |  |  |  | did not lead to TR3 induction |  |  |  | 
CCCCC/C=C/C=C1/C=CC(=O)[C@@H]1CCCCCCC(=O)O [15-deoxy-Δ^12.14_Prostaglandin A1] | ligand activators for TR3 |  |  | ◯30 μM |  |  |  |  | ◯30 μM |  |  |  |  | 
CCCCC[C@@H](O)/C=C/[C@H]1C=CC(=O)[C@@H]1CCCCCCC(=O)O [15-epiProstaglandin A1] | ligand activators for TR3; also recorded: the activity of enhancing the transcription-activating ability of TR3 was found | ◯10 μM |  | ◯10 μM | ◯10 μM | ligand activators; also recorded: found to comprise the activity of activating TINUR transcription |  |  | ◯10 μM |  |  |  |  | 
CCCCC[C@H](O)/C=C/[C@H]1C=CC(=O)[C@@H]1C/C=C\CCCC(=O)O [Prostaglandin A2] | ligand activators for TR3; also recorded: the activity of enhancing the transcription-activating ability of TR3 was found | ◯10 μM |  | ◯10 μM | ◯10 μM | ligand activators; also recorded: found to comprise the activity of activating TINUR transcription | ◯10 μM | ◯10 μM | ◯10 μM |  | detected | suppressed | detected | suppressed
O=C(O)CCC/C=C\C[C@H]1C(=O)C=C[C@@H]1/C=C/[C@@H](O)CCc1ccccc1 [17-phenyl trinorProstaglandin A2] | ligand activators for TR3 | ◯10 μM |  | ◯10 μM |  | ligand activators; also recorded: found to comprise the activity of activating TINUR transcription | ◯10 μM |  | ◯10 μM |  |  |  |  | 
CCCCC[C@H](O)/C=C/[C@H]1C=CC(=O)[C@@H]1CCCCCCC(=O)O [Prostaglandin A1] | ligand activators for TR3; also recorded: the activity of enhancing the transcription-activating ability of TR3 was found | ◯10 μM |  | ◯10 μM | ◯10 μM | ligand activators; also recorded: found to comprise the activity of activating TINUR transcription | ◯10 μM | ◯10 μM | ◯10 μM |  | detected |  | detected | 
CCCCC[C@H](O)C/C=C1/C(=O)C=C[C@@H]1C/C=C\CCCC(=O)O [Δ12-Prostaglandin J2] | the activity of enhancing the transcription-activating ability of TR3 was found |  |  |  |  |  |  |  |  |  |  |  |  | 
CCCCC[C@H](O)/C=C/[C@H]1C=CC(=O)[C@H]1CCCCCCC(=O)O [8-isoProstaglandin A1] | ligand activators for TR3 | ◯10 μM |  | ◯ 3 μM |  | ligand activators; also recorded: found to comprise the activity of activating TINUR transcription | ◯10 μM |  | ◯10 μM |  |  |  |  | 
B1 |  |  |  |  |  |  |  |  |  | did not lead to TR3 induction |  |  |  | 
